Assay: CKC/oligonucleotide complex formation, observation of precipitation
Assay type: physicochemical
Conditions: SEQ ID No. 2 solution 10 μM
Source text: CKC/Oligonucleotides complexes are formed due to the interaction of the CKC positive charges with the oligonucleotides negative charges conferred by each of the bases (18 in the case of SEQ ID No.2). The complex formation has the effect of neutralizing part of the negative charges of the oligonucleotides and to bring some lipophilic moieties to the complex. A stable complex with a balanced lipophilicity enhances the oligonucleotide penetration in the cells due to the affinity with the lipophilic cell membranes.
Stable complexes are formed without precipitation at ratios below 10/18 (CKC/oligonucleotide negative charges, the few lipophilic moieties being unable to induce the precipitation.

## SEQ ID No. 2: 18 mer-phosphorotioate oligonucleotide, 5′-3′ sequence ACT CAT ATT CAT AGG GTG (DNA ACTCATATTCATAGGGTG; all phosphorothioate, sugars by position and methylation of C not given here; further chemistry not fully specified)
Ratio CKC/negative charges 0.05, CKC 10 μM
  Observation (precipitation): No precipitation
Ratio CKC/negative charges 0.27, CKC 50 μM
  Observation (precipitation): No precipitation
Ratio CKC/negative charges 0.55, CKC 100 μM
  Observation (precipitation): No precipitation
Ratio CKC/negative charges 0.83, CKC 150 μM
  Observation (precipitation): ↓
Ratio CKC/negative charges 1.11, CKC 200 μM
  Observation (precipitation): ↓
Ratio CKC/negative charges 1.66, CKC 300 μM
  Observation (precipitation): ↓
Ratio CKC/negative charges 2.22, CKC 400 μM
  Observation (precipitation): ↓
Ratio CKC/negative charges 2.77, CKC 500 μM
  Observation (precipitation): ↓
Ratio CKC/negative charges 4.17, CKC 750 μM
  Observation (precipitation): ↓↓
Ratio CKC/negative charges 5.55, CKC 1000 μM
  Observation (precipitation): ↓↓↓
Ratio CKC/negative charges 55.55, CKC 10000 μM
  Observation (precipitation): ↓↓↓

From patent US7834172B2, “Composition comprising at least one nucleosidic moiety as a therapeutic agent, and CKC” (Novagali Pharma SA, priority 2007, dated 2010)
